Target: T1, MLLT1 (Homo sapiens, UniProt Q03111)
T1 construct: endogenous in cells; host or cells: MV4-11 (ATCC CRL-9591)
T1 sequence (Q03111 1-559): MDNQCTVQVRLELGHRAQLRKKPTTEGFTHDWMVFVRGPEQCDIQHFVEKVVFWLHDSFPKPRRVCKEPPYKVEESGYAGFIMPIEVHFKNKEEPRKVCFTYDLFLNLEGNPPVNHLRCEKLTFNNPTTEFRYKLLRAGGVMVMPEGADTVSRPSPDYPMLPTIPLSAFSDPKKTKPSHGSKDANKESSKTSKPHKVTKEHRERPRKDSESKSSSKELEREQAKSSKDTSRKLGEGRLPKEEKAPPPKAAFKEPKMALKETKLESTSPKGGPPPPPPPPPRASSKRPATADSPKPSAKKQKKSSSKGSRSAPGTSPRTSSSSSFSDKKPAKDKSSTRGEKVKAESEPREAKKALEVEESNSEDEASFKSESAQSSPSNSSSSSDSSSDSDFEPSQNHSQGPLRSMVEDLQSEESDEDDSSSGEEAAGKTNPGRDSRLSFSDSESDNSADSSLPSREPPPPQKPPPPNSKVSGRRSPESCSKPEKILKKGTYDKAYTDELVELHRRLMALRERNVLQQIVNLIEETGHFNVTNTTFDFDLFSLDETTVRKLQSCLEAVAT
Test: MLLT1 degradation assay (JESS automated chemiluminescent detection) in MV4-11 cells
Format: cell-based
Details: 24h, with respect to DMSO control
Procedure, shortened: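 MV4-11 cells were treated with 1000, 100 or 10 nM compound (0.1% DMSO) for 24 h at 37 °C. Lysates (4 µg protein) were probed for MLLT1 and GAPDH by JESS capillary chemiluminescence. Degradation was calculated from band peak areas versus DMSO control and binned into categories A–D.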

SMILES	inhibition at 0.01 µM	inhibition at 0.1 µM	inhibition at 1 µM
Cc1c(OCCCCCCCCn2nc(C)c3ccc(C(=O)Nc4cc5[nH]c([C@H]6CCCN6C)cc5cn4)cc32)cccc1N1CCC(=O)NC1=O [Example 9, 1-{8-[3-(2,4-dioxo-1,3-diazinan-1-yl)-2-methylphenoxy]octyl}-3-methyl-N-{2-[(2R)-1-methylpyrrolidin-2-yl]-1H-pyrrolo[3,2-c]pyridin-6-yl}indazole-6-carboxamide]	< 25%	25 to 50%	≥ 75%
Cc1c([C@H]2CCCN2C)[nH]c2cc(NC(=O)c3ccc4c(C)nn(CCCCCCCC#Cc5cccc6c5CN(C5CCC(=O)NC5=O)C6=O)c4c3)ncc12 (stereo partly drawn) [Example 57, 1-(9-(2-(2,6-dioxopiperidin-3-yl)-1-oxoisoindolin-4-yl)non-8-yn-1-yl)-3-methyl-N-(3-methyl-2-((R)-1-methylpyrrolidin-2-yl)-1H-pyrrolo[3,2-c]pyridin-6-yl)-1H-indazole-6-carboxamide]	≥ 75%	≥ 75%	≥ 75%
Cc1nn(CCCCCCCC#Cc2cc3c(cc2F)c(N2CCC(=O)NC2=O)nn3C)c2cc(C(=O)Nc3cc4[nH]c([C@H]5CCCN5C)cc4cn3)ccc12 [Example 65, (R)-1-(9-(3-(2,4-dioxotetrahydropyrimidin-1(2H)-yl)-5-fluoro-1-methyl-1H-indazol-6-yl)non-8-yn-1-yl)-3-methyl-N-(2-(1-methylpyrrolidin-2-yl)-1H-pyrrolo[3,2-c]pyridin-6-yl)-1H-indazole-6-carboxamide]	25 to 50%	50 to 75%	≥ 75%
CN1CCC[C@@H]1c1cc2cnc(NC(=O)c3ccc4c(cnn4CCCCCCCCNc4cccc5c4C(=O)N(C4CCC(=O)NC4=O)C5=O)c3)cc2[nH]1 (stereo partly drawn) [Example 36, 1-(8-((2-(2,6-dioxopiperidin-3-yl)-1,3-dioxoisoindolin-4-yl)amino)octyl)-N-(2-((R)-1-methylpyrrolidin-2-yl)-1H-pyrrolo[3,2-c]pyridin-6-yl)-1H-indazole-5-carboxamide]	≥ 75%	≥ 75%	≥ 75%
Cc1nn(CCCCCCCCNc2cccc3c2C(=O)N(C2CCC(=O)NC2=O)C3=O)c2cc(C(=O)Nc3cc4[nH]c([C@H]5CCCN5C)c(Cl)c4cn3)ccc12 (stereo partly drawn) [Example 18, N-(3-chloro-2-((R)-1-methylpyrrolidin-2-yl)-1H-pyrrolo[3,2-c]pyridin-6-yl)-1-(8-((2-(2,6-dioxopiperidin-3-yl)-1,3-dioxoisoindolin-4-yl)amino)octyl)-3-methyl-1H-indazole-6-carboxamide]	≥ 75%	≥ 75%	≥ 75%
Cc1nn(C2CCN(CC3CCN(c4cccc5c4C(=O)N(C4CCC(=O)NC4=O)C5=O)CC3)CC2)c2cc(C(=O)Nc3cc4[nH]c([C@H]5CCCN5C)cc4cn3)ccc12 (stereo partly drawn) [Example 71, 1-(1-((1-(2-(2,6-dioxopiperidin-3-yl)-1,3-dioxoisoindolin-4-yl)piperidin-4-yl)methyl)piperidin-4-yl)-3-methyl-N-(2-((R)-1-methylpyrrolidin-2-yl)-1H-pyrrolo[3,2-c]pyridin-6-yl)-1H-indazole-6-carboxamide]	50 to 75%	≥ 75%	≥ 75%
CN1CCC[C@@H]1c1cc2cnc(NC(=O)c3ccc4cnn(CCCCCCCC#Cc5cccc6c5CN(C5CCC(=O)NC5=O)C6=O)c4c3)cc2[nH]1 (stereo partly drawn) [Example 55, 1-(9-(2-(2,6-dioxopiperidin-3-yl)-1-oxoisoindolin-4-yl)non-8-yn-1-yl)-N-(2-((R)-1-methylpyrrolidin-2-yl)-1H-pyrrol[3,2-c]pyridin-6-yl)-1H-indazole-6-carboxamide]	50 to 75%	≥ 75%	≥ 75%
Cc1nn(C2CCN(CC3CCN(c4ccc5c(c4)C(=O)N(C4CCC(=O)NC4=O)C5=O)CC3)CC2)c2cc(C(=O)Nc3cc4[nH]c([C@H]5CCCN5C)cc4cn3)ccc12 (stereo partly drawn) [Example 70, 1-(1-((1-(2-(2,6-dioxopiperidin-3-yl)-1,3-dioxoisoindolin-5-yl)piperidin-4-yl)methyl)piperidin-4-yl)-3-methyl-N-(2-((R)-1-methylpyrrolidin-2-yl)-1H-pyrrolo[3,2-c]pyridin-6-yl)-1H-indazole-6-carboxamide]	≥ 75%	≥ 75%	≥ 75%
CN1CCC[C@@H]1c1cc2cnc(NC(=O)c3ccc4c(cnn4CCCCCCCC#Cc4cccc5c4CN(C4CCC(=O)NC4=O)C5=O)c3)cc2[nH]1 (stereo partly drawn) [Example 38, 1-(9-(2-(2,6-dioxopiperidin-3-yl)-1-oxoisoindolin-4-yl)non-8-yn-1-yl)-N-(2-((R)-1-methylpyrrolidin-2-yl)-1H-pyrrolo[3,2-c]pyridin-6-yl)-1H-indazole-5-carboxamide]	50 to 75%	≥ 75%	50 to 75%

More lines, now with the values ahead:

inhibition at 0.01 µM	inhibition at 0.1 µM	inhibition at 1 µM	SMILES
25 to 50%	50 to 75%	≥ 75%	Cc1nn(CCCCCCCC#Cc2ccnc(C(=O)N[C@H]3CCC(=O)NC3=O)c2)c2cc(C(=O)Nc3cc4[nH]c([C@H]5CCCN5C)cc4cn3)ccc12 [Example 43, 1-(9-(2-(((S)-2,6-dioxopiperidin-3-yl)carbamoyl)pyridin-4-yl)non-8-yn-1-yl)-3-methyl-N-(2-((R)-1-methylpyrrolidin-2-yl)-1H-pyrrolo [3,2-c]pyridin-6-yl)-1H-indazole-6-carboxamide]
≥ 75%	≥ 75%	≥ 75%	Cc1nn(CCCCCCCC=C(Cl)c2ccc3c(c2)n(C)c(=O)n3C2CCC(=O)NC2=O)c2cc(C(=O)Nc3cc4[nH]c([C@H]5CCCN5C)cc4cn3)ccc12 (mixture of isomers) [Example 40]
50 to 75%	≥ 75%	≥ 75%	Cc1nn(CCCCCCCC#Cc2cccc(C(=O)N[C@H]3CCC(=O)NC3=O)n2)c2cc(C(=O)Nc3cc4[nH]c([C@H]5CCCN5C)cc4cn3)ccc12 [Example 42, 1-(9-(6-(((S)-2,6-dioxopiperidin-3-yl)carbamoyl)pyridin-2-yl)non-8-yn-1-yl)-3-methyl-N-(2-((R)-1-methylpyrrolidin-2-yl)-1H-pyrrolo [3,2-c]pyridin-6-yl)-1H-indazole-6-carboxamide]
25 to 50%	50 to 75%	≥ 75%	CCN1CCC[C@@H]1c1cc2cnc(NC(=O)c3ccc4c(C)nn(CCCCCCCC#Cc5cccc6c5CN(C5CCC(=O)NC5=O)C6=O)c4c3)cc2[nH]1 (stereo partly drawn) [Example 48, 1-(9-(2-(2,6-dioxopiperidin-3-yl)-1-oxoisoindolin-4-yl)non-8-yn-1-yl)-N-(2-((R)-1-ethylpyrrolidin-2-yl)-1H-pyrrolo[3,2-c]pyridin-6-yl)-3-methyl-1H-indazole-6-carboxamide]
50 to 75%	50 to 75%	50 to 75%	Cc1nn(CCCCCC#Cc2cccc3c2n(C)c(=O)n3C2CCC(=O)NC2=O)c2cc(C(=O)Nc3cc4[nH]c([C@H]5CCCN5C)cc4cn3)ccc12 (stereo partly drawn) [Example 11, 1-{7-[1-(2,6-dioxopiperidin-3-yl)-3-methyl-2-oxo-1,3-benzodiazol-4-yl]hept-6-yn-1-yl}-3-methyl-N-{2-[(2R)-1-methylpyrrolidin-2-yl]-1H-pyrrolo[3,2-c]pyridin-6-yl}indazole-6-carboxamide]
≥ 75%	≥ 75%	≥ 75%	CN1CCC[C@@H]1c1cc2cnc(NC(=O)c3ccc4c(C5CC5)nn(CCCCCCCC#Cc5cccc6c5CN(C5CCC(=O)NC5=O)C6=O)c4c3)cc2[nH]1 (stereo partly drawn) [Example 59, 3-cyclopropyl-1-(9-(2-(2,6-dioxopiperidin-3-yl)-1-oxoisoindolin-4-yl)non-8-yn-1-yl)-N-(2-((R)-1-methylpyrrolidin-2-yl)-1H-pyrrolo [3,2-c]pyridin-6-yl)-1H-indazole-6-carboxamide]
< 25%	25 to 50%	50 to 75%	Cc1nn(CCCCCCCC#Cc2ccc(C(=O)N[C@H]3CCC(=O)NC3=O)nc2)c2cc(C(=O)Nc3cc4[nH]c([C@H]5CCCN5C)cc4cn3)ccc12 [Example 41, 1-(9-(6-(((S)-2,6-dioxopiperidin-3-yl)carbamoyl)pyridin-3-yl)non-8-yn-1-yl)-3-methyl-N-(2-((R)-1-methylpyrrolidin-2-yl)-1H-pyrrolo [3,2-c]pyridin-6-yl)-1H-indazole-6-carboxamide]

— patent publication EP4667466A1, “PROTAC DEGRADERS OF MLLT1 AND/OR MLLT3” (priority 2024, dated 2025)
